Laboratory results: US8486940B2, “Inhibitors” (Probiodrug AG, priority 2009, dated 2013)

Molecular target: hQC (Homo sapiens (Human), UniProt Q16769)
Assay: QC inhibitor assay (fluorometric / spectrophotometric QC activity assays)
Format: biochemical
Procedure: Excitation/emission wavelengths were 320/410 nm.
This novel assay was used to determine the kinetic parameters for most of the QC substrates. […] Samples consisted of the respective QC substrate, 0.3 mM NADH, 14 mM α-Ketoglutaric acid and 30 U/ml glutamate dehydrogenase in a final volume of 250 μl. Reactions were started by addition of QC and persued by monitoring of the decrease in absorbance at 340 nm for 8-15 min.
All samples were measured at 30° C., using either the […]uor Plus or the Sunrise (both from TECAN) reader for microplates. Kinetic data was evaluated using GraFit software.
For inhibitor testing, the sample composition was the same as described above, except of the putative inhibitory compound added. For a rapid test of QC-inhibition, samples contained 4 mM of the respective inhibitor and a substrate concentration at 1 KM. For detailed investigations of the inhibition and determination of K,-values, influence of the inhibitor on the auxiliary enzymes was investigated first. […] The inhibitory constant was evaluated by fitting the set of progress curves to the general equation for competitive inhibition using GraFit software.

hQC, sequence (Q16769 29-361): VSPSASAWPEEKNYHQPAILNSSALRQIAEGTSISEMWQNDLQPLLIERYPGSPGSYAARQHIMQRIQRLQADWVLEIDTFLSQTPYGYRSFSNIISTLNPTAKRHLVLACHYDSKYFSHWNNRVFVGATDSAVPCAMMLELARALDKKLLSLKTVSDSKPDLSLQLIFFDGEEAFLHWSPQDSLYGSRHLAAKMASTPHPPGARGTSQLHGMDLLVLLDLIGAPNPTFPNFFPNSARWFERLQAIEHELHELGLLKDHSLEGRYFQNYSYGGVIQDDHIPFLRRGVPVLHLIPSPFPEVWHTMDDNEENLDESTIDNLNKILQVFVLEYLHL

IC50, < 10 µM:
O=C1NCC(C2CCCCC2)N1c1ccc2[nH]cnc2c1 (centres unmarked) [Example 2, 1-(1H-benzo[d]imidazol-5-yl)-5-cyclohexylimidazolidin-2-one]
O=C1NCC(c2ccccc2)N1c1ccc2[nH]cnc2c1 (centres unmarked) [Example 3, 1-(1H-benzo[d]imidazol-5-yl)-5-phenylimidazolidin-2-one]
COc1ccc(C2CNC(=O)N2c2ccc3[nH]cnc3c2)cc1 (centres unmarked) [Example 5, 1-(1H-benzo[d]imidazol-5-yl)-5-(4-methoxyphenyl)imidazolidin-2-one]
CC(C)[C@H]1COC(=O)N1c1ccc2[nH]cnc2c1 [Example 68, (S)-3-(1H-benzo[d]imidazol-5-yl)-4-isopropyloxazolidin-2-one]
COc1ccc(C2CCCN2c2ccc3[nH]cnc3c2)cc1 (centres unmarked) [Example 102, 5-(2-(4-methoxyphenyl)pyrrolidin-1-yl)-1H-benzo[d]imidazole]
O=C1CSC(c2ccsc2)N1c1ccc2nc[nH]c2c1 (centres unmarked) [Example 116, 3-(1H-benzo[d]imidazol-6-yl)-2-(thiophen-3-yl)thiazolidin-4-one]
S=C1CSC(c2ccccc2)N1c1ccc2[nH]cnc2c1 (centres unmarked) [Example 118, 3-(1H-benzo[d]imidazol-5-yl)-2-phenylthiazolidine-4-thione]
O=C1NCC(c2ccc(N3CCCCC3)cc2)N1c1ccc2[nH]cnc2c1 (centres unmarked) [Example 175, 1-(1H-benzo[d]imidazol-5-yl)-5-(4-(piperidin-1-yl)phenyl)imidazolidin-2-one]
